Test results as given in patent US10383909B2, “Use of a plant extract, pharmaceutical compositions and use thereof” (HEBRON FARMACEUTICA PESQUISA, DESENVOLVIMENTO E INOVACAO …, priority 2010, dated 2019).
Several values for one entry are separate records, joined by “and”; a condition that tells them apart may be missing. Equal entries are not always repeated.

What was measured:
Assay type in all cases: in vivo, human
[1] = system: Helicobacter pylori; test: Analysis for Helicobacter pylori in biopsy after treatment; settings: after 28 days
Experimental: (§1) Patients included in the sample performed two esophagogastroduodenoscopy tests (EGD) with biopsy and analysis for Helicobacter pylori. The first test was made before the treatment, and the second, after four weeks (28 days) on medication. The protocol for administration of medications included: ingestion of one (1) the tablet based on Aroeira (about 233.60 mg) twice daily for four weeks (28 days), or the ingestion of 20 mg Omeprazole, two tablets twice daily for the same period. For data analysis, we used the Epi Info program, v.3.5.1, and Microsoft Excel 2007. Since they are categorical variables, Odds Ratios were evaluated and significant results were verified through a crude chi-squared test or with a Yates correction, when applicable, and alternatively the Fisher Exact Test when indicated. A Z test was also used to compare proportions when the expected frequencies were greater than or equal to 5. Confidence intervals were calculated for 95% confidence, with significant differences smaller than 5%.

[2] = Intensity of gastritis by histopathological examination before and after treatment (Sydney System)
Experimental: as §1, with “period. Classification with gradations and intensity of gastritis was based on the Sydney System.” for “period.”

[3] = Patient questionnaire on gastritis symptoms before and after treatment; settings: gastritis patients, oral, four weeks (28 days)
Excerpt: To evaluate the efficacy of hydroalcoholic extract of S. terebinthifolius in the form of a medication, 72 volunteer patients of both genders with diagnosed gastritis were selected. Anthropomorphic characteristics, such as age, weight and height were similar. The criteria for inclusion of patients in the sample were aged between 16 and 80 years (mean age was 40 years), with diagnosis of gastritis confirmed by endoscopy and pathological examination, and consent after clarification for study participation. We excluded patients who were treated with proton pump inhibitors, anti-inflammatory non-steroidal, H-2 receptor blockers and/or antacids during the month preceding the study.
The sample was randomly divided into two groups:
Group I—38 patients who used the medication based on Aroeira (Schinus terebinthifolius Raddi);
Group II—34 patients who used the drug Omeprazole (control group).
The protocol for administration of medications included: ingestion of one (1) the tablet based on Aroeira (about 233.60 mg) twice daily for four weeks (28 days), or the ingestion of 20 mg Omeprazole, two tablets twice daily for the same period.
For data analysis, we used the Epi Info program, v.3.5.1, and Microsoft Excel 2007. Since they are categorical variables, Odds Ratios were evaluated and significant results were verified through a crude chi-squared test or with a Yates correction, when applicable, and alternatively the Fisher Exact Test when indicated. A Z test was also used to compare proportions when the expected frequencies were greater than or equal to 5. Confidence intervals were calculated for 95% confidence, with significant differences smaller than 5%.
The results were obtained through a questionnaire completed by each patient, under the supervision of a specialist.

[4] = Esophagogastroduodenoscopy (EGD) before and after four weeks of treatment: gastritis present or absent; settings: 2nd EGD after 28 days
Excerpt: as §1, with “To evaluate the efficacy of hydroalcoholic extract of S. terebinthifolius in the form of a medication, 72 volunteer patients of both genders with diagnosed gastritis were selected. Anthropomorphic characteristics, such as age, weight and height were similar. The criteria for inclusion of patients in the sample were aged between 16 and 80 years (mean age was 40 years), with diagnosis of gastritis confirmed by endoscopy and pathological examination, and consent after clarification for study participation. We excluded patients who were treated with proton pump inhibitors, anti-inflammatory non-steroidal, H-2 receptor blockers and/or antacids during the month preceding the study. Patients” for “Patients”, “period. Classification with gradations and intensity of gastritis was based on the Sydney System.” for “period.”

[5] = intensity before treatment Mild/Discrete
[6] = intensity before treatment Moderate

## COc1ccc2[nH]c([S+]([O-])Cc3ncc(C)c(OC)c3C)nc2c1 (stereo not shown) [Omeprazole]
[1]
  H. pylori Absent after treatment, % (eradication rate): 9.4% and 9.38%
  H. pylori Absent after treatment, N° of patients: 3
  H. pylori Present after treatment, %: 90.63%
  H. pylori Present after treatment, N° of patients: 29
[2]; [5]
  Intensity after treatment Mild/Discrete, %: 54.50%
  Intensity after treatment Mild/Discrete, No. of patients: 12
  Intensity after treatment Moderate, %: 45.5%
  Intensity after treatment Moderate, N of patients: 10
[2]; [6]
  Intensity after treatment Mild/Discrete, % (improvement): 27.30%
  Intensity after treatment Moderate, %: 72.70%
  Intensity after treatment Moderate, N of patients: 8
[3]
  Percentage of improvement in symptoms after treatment: Abdominal discomfort relieved with meals: 85.70%
  Percentage of improvement in symptoms after treatment: Frequent epigastric pain: 72.70%
  Percentage of improvement in symptoms after treatment: Heartburn: 71.40%
  Percentage of improvement in symptoms after treatment: Nausea: 72.20%
[4]
  Gastritis Absent after treatment, % (disappearance of endoscopic mucosal injury): 0%
  Gastritis Absent after treatment, N° of patients: 0
  Gastritis Present after treatment, %: 100%
  Gastritis Present after treatment, N° of patients: 34
